This is an account of results in ChEMBL document CHEMBL3124797, “Copper complexes with phosphonium containing hydrazone ligand: topoisomerase inhibition and cytotoxicity study” (Eur J Med Chem, 2014).

One test deals with PC-3. The test is described as follows: Cytotoxicity against human PC3 cells after 72 hrs by MTT assay. The settings on record: PC-3, 72 h. It is filed as functional, cell-based.
The test system of test [1] is MRC5. As to the kind of experiment: Selectivity index, ratio of IC50 for human MRC5 cells to IC50 for human PC3 cells. It counts as functional.
Test [2] concerns MRC5. As to the kind of experiment: Cytotoxicity against human MRC5 cells after 72 hrs by MTT assay. It is filed as cell-based. Conditions: MRC5, 72 h. (In general: Tetrazolium dyes change colour on reduction, which living cells bring about.)
The next test relates to A549. As to the kind of experiment: Cytotoxicity against human A549 cells after 72 hrs by MTT assay. Conditions: A549, 72 h. It counts as functional, cell-based.

A word on the IC50: it is the concentration at which inhibition is half-maximal. Higher therefore signals weaker potency. Regarding `O.O=C(N/N=C/c1cc(C[P+](c2ccccc2)(c2ccccc2)c2ccccc2)ccc1O)c1ccccc1.[Cl-]`, the 50% inhibitory concentration (IC50) in the test on PC-3 is 14.4 µM; in the test with MRC5 [2], 12.2 µM; in the test with A549 it was more than 30 µM. Further, in the test with MRC5 [1], the “Ratio IC50” value stood at 0.85.
Consider `O=Cc1cc(C[P+](c2ccccc2)(c2ccccc2)c2ccccc2)ccc1O`, for which the IC50 in the test with PC-3, in the test with MRC5 [2] and in the test with A549 was more than 30 µM each time.
